Source: PMC4610166, “Structural and Functional Characterization of Recombinant Isoforms of the Lentil Lipid Transfer Protein” (Acta Naturae, 2015)

Tests used:
Assay in all cases: TNS fluorescence displacement (ex […] nm, em […] nm)
Assay type in all cases: binding
[1] = biological target: T1, Lc-LTP3 (Lens culinaris, UniProt A0AT30); settings: protein 2.5 uM; 3 uM TNS, 65 uM stearic acid; 175 mM D-mannitol, 0.5 mM K2SO4, 0.5 mM CaCl2, 5 mM MES pH 7.0, 25 C; competition with TNS
T1 construct: mature protein, 93 residues; expressed in E. coli BL21(DE3) as His8-TrxL fusion, tag cut off with CNBr; from soluble fraction; four disulfides; monomer and dimer on SDS-PAGE
T1 sequence (A0AT30 26-118): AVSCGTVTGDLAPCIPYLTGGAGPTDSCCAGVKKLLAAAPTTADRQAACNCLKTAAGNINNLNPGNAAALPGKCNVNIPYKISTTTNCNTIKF

[2] = biological target: T2, Lc-LTP1 (Lens culinaris, UniProt A0AT28); settings: refolded protein 2.5 uM; 3 uM TNS, 65 uM stearic acid; 175 mM D-mannitol, 0.5 mM K2SO4, 0.5 mM CaCl2, 5 mM MES pH 7.0, 25 C; competition with TNS
T2 construct: mature protein, 93 residues; expressed in E. coli BL21(DE3) as His8-TrxL fusion, tag cut off with CNBr; four disulfides; monomer and dimer on SDS-PAGE
T2 sequence (A0AT28 26-118): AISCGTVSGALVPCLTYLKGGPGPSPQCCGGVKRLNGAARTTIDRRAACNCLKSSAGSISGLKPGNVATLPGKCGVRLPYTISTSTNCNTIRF

[3] = biological target: T3, Lc-LTP2 (Lens culinaris, UniProt A0AT29); settings: protein 2.5 uM; 3 uM TNS, 65 uM stearic acid; 175 mM D-mannitol, 0.5 mM K2SO4, 0.5 mM CaCl2, 5 mM MES pH 7.0, 25 C; competition with TNS
T3 sequence (A0AT29 26-118): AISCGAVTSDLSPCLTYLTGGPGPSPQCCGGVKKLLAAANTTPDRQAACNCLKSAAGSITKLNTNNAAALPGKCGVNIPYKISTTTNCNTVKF

Q: What does the source list for CCCCCCCCCCCCCCCCCC(=O)O [stearic acid]?
A: % fluorescence intensity of the protein-TNS complex [1]: all three isoforms possess the ability to bind fatty acids; % fluorescence intensity of the protein-TNS complex [2]: all three isoforms possess the ability to bind fatty acids; % fluorescence intensity of the protein-TNS complex [3]: all three isoforms possess the ability to bind fatty acids
